Measured values: patent publication US20060020035A1, “Bone marrow protection with N-acetyl-L-cysteine” (Oregon Health & Science University, priority 2004, published 2006)
Read-outs that look alike come from different tables or passages of the source.

What was measured:
[1] = tested on: total white cells, granulocytes, and platelets; experiment: Example 2: L-NAC and D-NAC on rat blood counts after buthionine sulfoximine and tri-drug chemotherapy; format: in vivo; settings: pretreatment; rats pretreated with buthionine sulfoximine, tri-drug chemotherapy
From the text: In the experiment shown in FIG. 4, rats were pretreated With buthionine sulfoximine to enhance the bone marrow toxicity of chemotherapy, and then treated with the tri-drug chemotherapy regimen with or without L-NAC or D-NAC.

[2] = N-Acetylcysteine clearance from rat blood (serum concentration, colorimetric kit and HPLC); format: in vivo, Long Evans rats
Experimental: N-Acetylcysteine Clearance. […] Blood samples (0.5 ml) were collected 5, 15, 30, 60, and 90 min after thiol administration, and serum was evaluated for N-acetylcysteine concentration. Serum N-acetylcysteine concentrations were measured using the Bioxytech GSH-400 colorimetric kit (Oxis Research, Portland, Oreg.). The colorimetric assay was validated by high-pressure liquid chromatography (HPLC) analysis of serum thiols for n=2 rats from groups B and D. Deproteinated serum samples were diluted in 160 mM KH2PO4, pH 3. Thiols were measured by electrochemical detection using a Waters radial compression module with 10-μm C18 column (Waters, Milford, Mass.), an ESA 5010 analytical cell, and an ESA 5100A coulochem detector (ESA Inc., Chelmsford, Mass.). Area under the curve was compared with known concentrations prepared in control sera.

[3] = tested on: total white cells, granulocytes, and platelets; experiment: Major tumor study: blood counts after tri-drug chemotherapy with or without chemoprotection; format: in vivo, nude rats
Experimental: (§1) Osmotic Blood-Brain Barrier Disruption. Anesthesia was induced with 5% isoflurane and maintained with propofol (650 μg/kg/min). Mannitol (25%, 37° C.) was infused cephalad into the left internal carotid artery via a left external carotid catheter (Remsen et al., Anesthesia Analgesia 88:559-67, 1999).
(§2) Aortic Infusion Technique. The left internal carotid artery was temporarily occluded, and agents were administered retrograde to the descending aorta through a left external carotid catheter (Neuwelt et al., Cancer Res 61:7868-74, 2001).

in vivo = settings: Long Evans, rat, maximum tolerated dose
Experimental: as §1, §2
N-Acetylcysteine Toxicity. N-Acetyl-L-cysteine (N-acetylcysteine, Mucomyst; Roxane Laboratories, Inc., Columbus, Ohio) was given by aortic infusion 30 min (n=7) or 60 min (n=10) before blood brain barrier disruption in normal Long Evans rats. Doses ranged from 400 to 1500 mg/kg in 3 ml infused at 0.6 ml/min. Rats were sacrificed 6 days after treatment or at signs of acute neurotoxicity (head tilt, circling, moribund).

platelets = settings: 8 g/m^2 intravenous 2, 4, or 8 h after high-dose carboplatin; blood counts 6 days after chemotherapy
Experimental: Pilot study 2 evaluated various timing schemes for chemoprotection. Normal rats (n=54, six rats per group) were treated with a tri-drug chemotherapy regimen consisting of carboplatin (200 mg/m^2), melphalan (10 mg/m^2 Alkeran; GlaxoSmithKline, Uxbridge, Middlesex, UK), and etoposide phosphate (100 mg/m^2 Etopophos; Bristol-Meyers Squibb Co.), administered in the right carotid artery. […] For both pilot studies 1 and 2, blood counts were determined at 6 days after chemotherapy, in comparison with untreated controls. For blood count analysis, 0.5 ml of whole blood collected in EDTA microtubes was analyzed in duplicate on a Hemavet 850 (CDC Technologies Inc., Oxford, Conn.).

[4] = previously reported (Neuwelt et al. 1998); cited from earlier work
bone marrow = settings: administered immediately after chemotherapy, alone or in combination with N-acetylcysteine (Neuwelt et al. 2001); cited from earlier work
[5] = 1000 mg/kg by aortic infusion, 60 min before chemotherapy

| SMILES | bone marrow chemoprotective activity (total white cells, granulocytes, and platelets) [1] | maximum blood concentration ([2]; 1000 mg/kg intra-arterially, 5 min after infusion) [mM] | blood concentration at the time of chemotherapy delivery ([2]; 1000 mg/kg intra-arterially, 60 min after infusion) [µM] | half-life ([2]; Long Evans, rat, serum, other: intravenous or aortic infusion (all groups), all groups: 140-1200 mg/kg, intravenous or aortic infusion) [min] | protection for granulocytes [3, 5] | protection for white cells [3, 5] | platelet chemoprotection ([3]; N-acetylcysteine alone, 1000 mg/kg by aortic infusion, 60 min before chemotherapy) | MTD at 6 days (in vivo; aortic infusion 30 min before blood-brain barrier disruption) [mg/kg] | MTD at 6 days (in vivo; aortic infusion 60 min before blood-brain barrier disruption) [mg/kg] | protection against chemotherapy-induced bone marrow suppression ([3]; sodium thiosulfate 8 g/m^2 4 and 8 h after chemotherapy, with or without N-acetylcysteine 1000 mg/kg 60 min before) | platelet chemoprotection (platelets) | half-life [4] [min] | bone marrow chemoprotective activity (bone marrow) |
| --- | --- | --- | --- | --- | --- | --- | --- | --- | --- | --- | --- | --- | --- |
| CC(=O)N[C@@H](CS)C(=O)O [N-acetylcysteine, N-acetyl-L-cysteine] | significantly reduced chemotherapy toxicity | 11.2 ± 1.3 | 200 ± 100 | 9 to 11 | significantly protective | significantly protective | not significant | 500 | 1000 | – | – | – | – |
| CC(=O)N[C@H](CS)C(=O)O [D-NAC, N-acetyl-D-cysteine] | not bone marrow protective | – | – | – | – | – | – | – | – | – | – | – | – |
| O=S([O-])([O-])=S.[Na+].[Na+] [sodium thiosulfate] | – | – | – | – | – | – | – | – | – | minimal protective effect | delaying sodium thiosulfate administration improved platelet chemoprotection | 15 | minimal bone marrow chemoprotective activity |
